Active and inactive are the calls of the source. The rule behind the calls is not given here.

The assay has as its system HL-60. Description: Potentiation of cisplatin cytotoxicity against human HL60 cells. The class given is functional, cell-based.
As for `C[C@@H]1CC[C@@]2(OC1)O[C@H]1C[C@H]3[C@@H]4CC=C5C[C@@H](O[C@@H]6O[C@H](CO)[C@@H](O[C@@H]7OC[C@](O)(CO)[C@H]7O)[C@H](O)[C@H]6O[C@@H]6O[C@@H](C)[C@H](O)[C@@H](O)[C@H]6O)CC[C@]5(C)[C@H]4CC[C@]3(C)[C@H]1[C@@H]2C`, the result was inactive.
Take `C[C@@H]1CC[C@@]2(OC1)O[C@H]1C[C@H]3[C@@H]4CC=C5C[C@@H](O[C@@H]6O[C@H](CO)[C@@H](O[C@@H]7OC[C@](O)(CO)[C@H]7O)[C@H](O)[C@H]6O)CC[C@]5(C)[C@H]4CC[C@]3(C)[C@H]1[C@@H]2C`: the outcome was inactive.
Take `CC(=O)O[C@@H]1[C@@H](O)[C@@H](O)[C@H](O[C@H]2[C@H](O[C@H]3CC[C@@]4(C)C(=CC[C@H]5[C@@H]6C[C@@H]7O[C@]8(CC[C@@H](C)CO8)[C@@H](C)[C@@H]7[C@@]6(C)CC[C@@H]54)C3)O[C@H](CO)[C@@H](O[C@@H]3OC[C@](O)(CO)[C@H]3O)[C@@H]2O)O[C@H]1C`: the result was inactive.
Regarding `C[C@@H]1CC[C@@]2(OC1)O[C@H]1C[C@H]3[C@@H]4CC=C5C[C@@H](O[C@@H]6O[C@H](CO)[C@@H](O[C@@H]7O[C@@H](C)[C@H](O)[C@@H](O)[C@H]7O)[C@H](O)[C@H]6O[C@@H]6O[C@@H](C)[C@H](O)[C@@H](O)[C@H]6O)CC[C@]5(C)[C@H]4CC[C@]3(C)[C@H]1[C@@H]2C`, the result was inactive.

The values are drawn from ChEMBL document CHEMBL1158860, “New Diosgenin Glycosides from Costus afer” (J Nat Prod, 1997).
